Measured values as given in ChEMBL document CHEMBL4507260 (2021).

Legend:
Details in all cases: Compound concentration 1000.0 nM
[1] = target: AP2-associated protein kinase 1 (Homo sapiens) (UniProt Q2M2I8)
[2] = system: Tyrosine-protein kinase ABL1 (Homo sapiens), P00519 [Q252H]
[3] = target: Aurora kinase C (Homo sapiens) (UniProt Q9UQB9)
[4] = target: Calcium/calmodulin-dependent protein kinase type 1B (Homo sapiens) (UniProt Q6P2M8)
[5] = target: Calcium/calmodulin-dependent protein kinase type II subunit delta (Homo sapiens) (UniProt Q13557)
[6] = target: Calcium/calmodulin-dependent protein kinase type IV (Homo sapiens) (UniProt Q16566)
[7] = target: Calcium/calmodulin-dependent protein kinase kinase 2 (Homo sapiens) (UniProt Q96RR4)
[8] = target: Cyclin-dependent kinase 7 (Homo sapiens) (UniProt P50613)
Sequence of Cyclin-dependent kinase 7 (Homo sapiens) (P50613 whole entry): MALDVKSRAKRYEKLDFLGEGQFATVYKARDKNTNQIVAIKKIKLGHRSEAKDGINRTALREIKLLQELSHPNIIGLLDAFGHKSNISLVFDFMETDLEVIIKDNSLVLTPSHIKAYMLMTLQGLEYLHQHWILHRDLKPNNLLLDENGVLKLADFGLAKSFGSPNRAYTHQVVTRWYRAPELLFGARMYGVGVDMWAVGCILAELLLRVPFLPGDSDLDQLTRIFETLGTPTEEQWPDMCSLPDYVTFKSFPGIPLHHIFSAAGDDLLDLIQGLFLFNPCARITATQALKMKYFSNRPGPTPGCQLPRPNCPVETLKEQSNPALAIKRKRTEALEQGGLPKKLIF

[9] = target: Cyclin-dependent kinase-like 5 (Homo sapiens) (UniProt O76039)
Sequence of Cyclin-dependent kinase-like 5 (Homo sapiens) (O76039 whole entry): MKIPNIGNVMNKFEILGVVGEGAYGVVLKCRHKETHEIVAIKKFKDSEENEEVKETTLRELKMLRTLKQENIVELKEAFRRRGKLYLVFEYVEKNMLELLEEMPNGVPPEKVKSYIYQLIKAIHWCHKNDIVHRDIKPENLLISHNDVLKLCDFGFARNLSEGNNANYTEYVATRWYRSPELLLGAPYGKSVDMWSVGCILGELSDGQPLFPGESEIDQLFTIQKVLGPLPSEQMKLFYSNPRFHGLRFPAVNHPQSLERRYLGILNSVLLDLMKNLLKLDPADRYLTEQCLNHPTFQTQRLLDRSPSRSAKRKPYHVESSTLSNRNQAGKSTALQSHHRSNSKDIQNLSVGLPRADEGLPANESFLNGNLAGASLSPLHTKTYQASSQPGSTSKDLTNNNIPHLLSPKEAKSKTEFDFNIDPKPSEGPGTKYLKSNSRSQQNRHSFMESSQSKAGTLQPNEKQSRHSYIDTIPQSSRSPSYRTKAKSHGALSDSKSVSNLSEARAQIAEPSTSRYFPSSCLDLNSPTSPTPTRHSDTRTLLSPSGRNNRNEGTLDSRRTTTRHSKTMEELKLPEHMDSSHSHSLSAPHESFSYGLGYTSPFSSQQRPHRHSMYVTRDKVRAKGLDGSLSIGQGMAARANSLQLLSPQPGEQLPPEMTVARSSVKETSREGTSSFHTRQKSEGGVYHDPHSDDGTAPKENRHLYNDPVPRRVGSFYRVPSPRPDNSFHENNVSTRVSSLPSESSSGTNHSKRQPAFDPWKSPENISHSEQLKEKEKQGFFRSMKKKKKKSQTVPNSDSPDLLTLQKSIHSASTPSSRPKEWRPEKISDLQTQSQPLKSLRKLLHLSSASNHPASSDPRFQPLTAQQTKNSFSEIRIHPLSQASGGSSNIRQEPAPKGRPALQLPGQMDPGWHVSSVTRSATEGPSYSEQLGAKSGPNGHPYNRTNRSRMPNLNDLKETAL

[10] = target: Serine/threonine-protein kinase Chk2 (Homo sapiens) (UniProt O96017)
Sequence of Serine/threonine-protein kinase Chk2 (Homo sapiens) (O96017 whole entry): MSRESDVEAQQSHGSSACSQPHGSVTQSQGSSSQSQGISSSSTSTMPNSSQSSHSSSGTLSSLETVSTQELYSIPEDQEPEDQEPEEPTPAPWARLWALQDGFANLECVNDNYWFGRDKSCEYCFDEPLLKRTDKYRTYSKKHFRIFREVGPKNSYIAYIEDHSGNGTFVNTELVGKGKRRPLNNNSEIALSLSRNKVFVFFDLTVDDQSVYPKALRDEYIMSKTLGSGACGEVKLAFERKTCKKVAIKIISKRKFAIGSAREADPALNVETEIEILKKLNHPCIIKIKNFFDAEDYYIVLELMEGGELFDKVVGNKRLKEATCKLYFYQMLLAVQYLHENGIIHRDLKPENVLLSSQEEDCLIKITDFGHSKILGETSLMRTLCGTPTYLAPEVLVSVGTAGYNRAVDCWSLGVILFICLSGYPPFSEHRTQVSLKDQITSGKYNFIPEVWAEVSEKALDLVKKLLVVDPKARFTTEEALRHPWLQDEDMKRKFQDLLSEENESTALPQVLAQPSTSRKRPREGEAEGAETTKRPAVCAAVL

[11] = target: Casein kinase II subunit alpha (Homo sapiens) (UniProt P68400)
[12] = target: Serine/threonine-protein kinase 17A (Homo sapiens) (UniProt Q9UEE5)
[13] = system: Epidermal growth factor receptor (Homo sapiens), P00533 [UNDEFINED MUTATION]
[14] = target: Ephrin type-A receptor 1 (Homo sapiens) (UniProt P21709)
[15] = target: Mitogen-activated protein kinase 3 (Homo sapiens) (UniProt P27361)
Sequence of Mitogen-activated protein kinase 3 (Homo sapiens) (P27361 whole entry): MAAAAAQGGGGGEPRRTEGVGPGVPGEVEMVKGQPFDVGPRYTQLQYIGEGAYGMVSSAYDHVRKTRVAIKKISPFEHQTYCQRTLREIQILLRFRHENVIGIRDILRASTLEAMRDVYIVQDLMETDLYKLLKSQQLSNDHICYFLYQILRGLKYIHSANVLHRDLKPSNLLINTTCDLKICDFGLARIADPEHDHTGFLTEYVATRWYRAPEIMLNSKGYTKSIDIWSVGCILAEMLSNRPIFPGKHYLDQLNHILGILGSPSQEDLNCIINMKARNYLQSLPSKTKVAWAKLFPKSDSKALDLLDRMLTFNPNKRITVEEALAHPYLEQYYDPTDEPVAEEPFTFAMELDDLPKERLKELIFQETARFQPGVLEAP

[16] = target: Mitogen-activated protein kinase 6 (Homo sapiens) (UniProt Q16659)
Sequence of Mitogen-activated protein kinase 6 (Homo sapiens) (Q16659 whole entry): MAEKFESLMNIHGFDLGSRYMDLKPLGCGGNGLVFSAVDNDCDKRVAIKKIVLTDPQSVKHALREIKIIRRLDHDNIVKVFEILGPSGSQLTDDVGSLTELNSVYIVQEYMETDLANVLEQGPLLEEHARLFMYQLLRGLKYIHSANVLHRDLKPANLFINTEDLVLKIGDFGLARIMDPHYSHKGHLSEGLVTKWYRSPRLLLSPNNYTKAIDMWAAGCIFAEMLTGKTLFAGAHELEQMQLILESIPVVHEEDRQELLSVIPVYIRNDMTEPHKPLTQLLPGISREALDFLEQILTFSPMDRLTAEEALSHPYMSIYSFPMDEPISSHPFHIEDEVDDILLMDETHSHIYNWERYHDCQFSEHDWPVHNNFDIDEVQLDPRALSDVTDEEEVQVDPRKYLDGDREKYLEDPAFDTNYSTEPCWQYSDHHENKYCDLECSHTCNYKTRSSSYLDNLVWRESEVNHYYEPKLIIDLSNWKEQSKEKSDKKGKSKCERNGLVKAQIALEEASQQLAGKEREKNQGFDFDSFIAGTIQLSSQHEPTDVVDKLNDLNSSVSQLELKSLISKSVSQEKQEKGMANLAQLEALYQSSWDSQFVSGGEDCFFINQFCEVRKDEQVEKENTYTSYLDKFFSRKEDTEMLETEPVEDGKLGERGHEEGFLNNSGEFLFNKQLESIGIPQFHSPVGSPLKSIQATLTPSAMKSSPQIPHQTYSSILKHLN

[17] = target: Mitogen-activated protein kinase 4 (Homo sapiens) (UniProt P31152)
[18] = target: Receptor-type tyrosine-protein kinase FLT3 (Homo sapiens) (UniProt P36888)
[19] = target: Inhibitor of nuclear factor kappa-B kinase subunit epsilon (Homo sapiens) (UniProt Q14164)
[20] = target: Interleukin-1 receptor-associated kinase 1 (Homo sapiens) (UniProt P51617)
[21] = target: Tyrosine-protein kinase JAK1 (Homo sapiens) (UniProt P23458)
Sequence of Tyrosine-protein kinase JAK1 (Homo sapiens) (P23458 whole entry): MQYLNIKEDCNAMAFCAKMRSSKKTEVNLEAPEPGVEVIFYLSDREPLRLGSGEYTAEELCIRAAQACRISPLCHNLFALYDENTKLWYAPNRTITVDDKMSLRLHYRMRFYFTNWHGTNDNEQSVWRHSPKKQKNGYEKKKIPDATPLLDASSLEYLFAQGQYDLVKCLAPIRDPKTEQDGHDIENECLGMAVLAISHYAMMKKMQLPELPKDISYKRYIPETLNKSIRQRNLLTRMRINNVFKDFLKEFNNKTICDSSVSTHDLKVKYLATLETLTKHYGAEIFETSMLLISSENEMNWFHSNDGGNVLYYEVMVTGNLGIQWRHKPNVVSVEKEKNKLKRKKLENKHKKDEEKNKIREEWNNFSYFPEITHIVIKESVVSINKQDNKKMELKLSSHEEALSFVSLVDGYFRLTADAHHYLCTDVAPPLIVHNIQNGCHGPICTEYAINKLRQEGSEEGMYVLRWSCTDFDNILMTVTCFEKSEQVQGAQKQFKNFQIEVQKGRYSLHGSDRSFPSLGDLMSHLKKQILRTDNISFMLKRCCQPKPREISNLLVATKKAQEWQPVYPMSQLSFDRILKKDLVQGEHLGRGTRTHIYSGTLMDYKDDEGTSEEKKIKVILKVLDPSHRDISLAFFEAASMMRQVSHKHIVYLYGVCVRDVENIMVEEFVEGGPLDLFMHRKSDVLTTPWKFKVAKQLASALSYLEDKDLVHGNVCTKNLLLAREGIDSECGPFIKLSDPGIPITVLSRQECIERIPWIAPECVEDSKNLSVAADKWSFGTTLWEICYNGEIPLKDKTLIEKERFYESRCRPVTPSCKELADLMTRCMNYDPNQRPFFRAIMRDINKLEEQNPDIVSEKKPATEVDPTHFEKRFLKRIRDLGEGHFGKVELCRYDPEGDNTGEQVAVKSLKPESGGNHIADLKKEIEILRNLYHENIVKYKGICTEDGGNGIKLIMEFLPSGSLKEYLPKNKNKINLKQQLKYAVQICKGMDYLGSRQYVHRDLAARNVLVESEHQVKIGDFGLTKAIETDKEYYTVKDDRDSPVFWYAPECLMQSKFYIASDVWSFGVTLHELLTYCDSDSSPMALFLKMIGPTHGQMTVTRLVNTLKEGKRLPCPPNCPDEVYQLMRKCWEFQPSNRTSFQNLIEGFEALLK

[22] = target: Mitogen-activated protein kinase 8 (Homo sapiens) (UniProt P45983)
[23] = system: Mast/stem cell growth factor receptor Kit (Homo sapiens), P10721 [D816H]
[24] = system: Mast/stem cell growth factor receptor Kit (Homo sapiens), P10721 [V559D]
[25] = target: Serine/threonine-protein kinase LATS2 (Homo sapiens) (UniProt Q9NRM7)
[26] = target: Serine/threonine-protein kinase STK11 (Homo sapiens) (UniProt Q15831)
[27] = target: Serine/threonine-protein kinase MARK1 (Homo sapiens) (UniProt Q9P0L2)
[28] = target: Myosin light chain kinase (Homo sapiens) (UniProt Q32MK0)
[29] = target: Mitogen-activated protein kinase kinase kinase 10 (Homo sapiens) (UniProt Q02779)
[30] = target: Serine/threonine-protein kinase 4 (Homo sapiens) (UniProt Q13043)
[31] = target: Muscle, skeletal receptor tyrosine-protein kinase (Homo sapiens) (UniProt O15146)
[32] = target: Myosin-IIIa (Homo sapiens) (UniProt Q8NEV4)
[33] = target: Mitogen-activated protein kinase kinase kinase 14 (Homo sapiens) (UniProt Q99558)
[34] = target: Mitogen-activated protein kinase 14 (Homo sapiens) (UniProt Q16539)
[35] = target: Cyclin-dependent kinase 15 (Homo sapiens) (UniProt Q96Q40)
[36] = target: Serine/threonine-protein kinase pim-1 (Homo sapiens) (UniProt P11309)
[37] = target: Membrane-associated tyrosine- and threonine-specific cdc2-inhibitory kinase (Homo sapiens) (UniProt Q99640)
[38] = target: Protein kinase C theta type (Homo sapiens) (UniProt Q04759)
[39] = target: Receptor-interacting serine/threonine-protein kinase 4 (Homo sapiens) (UniProt P57078)
[40] = target: Ribosomal protein S6 kinase alpha-3 (Homo sapiens) (UniProt P51812)
[41] = target: Serine/threonine-protein kinase SIK2 (Homo sapiens) (UniProt Q9H0K1)
[42] = target: Proto-oncogene tyrosine-protein kinase Src (Homo sapiens) (UniProt P12931)
Sequence of Proto-oncogene tyrosine-protein kinase Src (Homo sapiens) (P12931 2-536 limits assumed): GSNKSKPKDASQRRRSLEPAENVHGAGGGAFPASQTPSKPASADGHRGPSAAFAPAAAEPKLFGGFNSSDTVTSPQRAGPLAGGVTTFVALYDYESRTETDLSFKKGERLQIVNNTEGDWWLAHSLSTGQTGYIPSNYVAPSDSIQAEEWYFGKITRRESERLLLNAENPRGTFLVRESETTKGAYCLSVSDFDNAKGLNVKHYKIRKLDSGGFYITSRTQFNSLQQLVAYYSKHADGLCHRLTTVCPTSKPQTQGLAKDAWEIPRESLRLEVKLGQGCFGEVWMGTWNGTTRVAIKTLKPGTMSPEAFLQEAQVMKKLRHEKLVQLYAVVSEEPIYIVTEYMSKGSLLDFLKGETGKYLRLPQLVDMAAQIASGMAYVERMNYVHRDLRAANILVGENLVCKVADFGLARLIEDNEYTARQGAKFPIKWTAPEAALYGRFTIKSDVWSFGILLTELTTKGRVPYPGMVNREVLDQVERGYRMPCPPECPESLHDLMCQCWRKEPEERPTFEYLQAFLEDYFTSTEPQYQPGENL

[43] = target: Serine/threonine-protein kinase TAO2 (Homo sapiens) (UniProt Q9UL54)
[44] = target: Activated CDC42 kinase 1 (Homo sapiens) (UniProt Q07912)
[45] = target: Serine/threonine-protein kinase WNK3 (Homo sapiens) (UniProt Q9BYP7)

Sequence of Aurora kinase C (Homo sapiens) (Q9UQB9 whole entry): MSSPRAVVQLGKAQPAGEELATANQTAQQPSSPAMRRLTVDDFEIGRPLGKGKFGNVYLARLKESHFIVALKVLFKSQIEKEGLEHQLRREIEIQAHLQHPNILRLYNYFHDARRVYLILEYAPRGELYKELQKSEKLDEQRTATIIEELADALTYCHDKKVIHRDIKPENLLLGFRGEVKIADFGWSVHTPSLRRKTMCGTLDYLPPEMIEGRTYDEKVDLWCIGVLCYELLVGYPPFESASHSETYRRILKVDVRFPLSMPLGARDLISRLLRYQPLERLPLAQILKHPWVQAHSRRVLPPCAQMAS

SMILES: c1ccc(N2CCN(Cc3nc4ccccc4[nH]3)CC2)nc1 [ABT-724]
- residual activity [1]: 100%
- residual activity [2]: 93%
- residual activity [3]: 100%
- residual activity [4]: 0%
- residual activity [5]: 91%
- residual activity [6]: 88%
- residual activity [7]: 91%
- residual activity [8]: 48%
- residual activity [9]: 100%
- residual activity [10]: 100%
- residual activity [11]: 97%
- residual activity [12]: 100%
- residual activity [13]: 100%
- residual activity [14]: 100%
- residual activity [15]: 100%
- residual activity [16]: 100%
- residual activity [17]: 100%
- residual activity [18]: 100%
- residual activity [19]: 100%
- residual activity [20]: 100%
- residual activity [21]: 76%
- residual activity [22]: 100%
- residual activity [23]: 100%
- residual activity [24]: 100%
- residual activity [25]: 75%
- residual activity [26]: 70%
- residual activity [27]: 100%
- residual activity [28]: 100%
- residual activity [29]: 93%
- residual activity [30]: 100%
- residual activity [31]: 100%
- residual activity [32]: 100%
- residual activity [33]: 94%
- residual activity [34]: 89%
- residual activity [35]: 95%
- residual activity [36]: 90%
- residual activity [37]: 100%
- residual activity [38]: 98%
- residual activity [39]: 100%
- residual activity [40]: 100%
- residual activity [41]: 100%
- residual activity [42]: 93%
- residual activity [43]: 83%
- residual activity [44]: 100%
- residual activity [45]: 100%

SMILES: CSc1cccnc1N1CCN(Cc2nc3ccccc3[nH]2)CC1 [A-769]
- residual activity [1]: 100%
- residual activity [2]: 67%
- residual activity [3]: 100%
- residual activity [4]: 100%
- residual activity [5]: 100%
- residual activity [6]: 100%
- residual activity [7]: 100%
- residual activity [8]: 61%
- residual activity [9]: 76%
- residual activity [10]: 96%
- residual activity [11]: 81%
- residual activity [12]: 98%
- residual activity [13]: 100%
- residual activity [14]: 100%
- residual activity [15]: 99%
- residual activity [16]: 100%
- residual activity [17]: 100%
- residual activity [18]: 100%
- residual activity [19]: 81%
- residual activity [20]: 73%
- residual activity [21]: 80%
- residual activity [22]: 77%
- residual activity [23]: 100%
- residual activity [24]: 96%
- residual activity [25]: 94%
- residual activity [26]: 100%
- residual activity [27]: 100%
- residual activity [28]: 100%
- residual activity [29]: 100%
- residual activity [30]: 85%
- residual activity [31]: 100%
- residual activity [32]: 100%
- residual activity [33]: 100%
- residual activity [34]: 100%
- residual activity [35]: 100%
- residual activity [36]: 100%
- residual activity [37]: 100%
- residual activity [38]: 100%
- residual activity [39]: 66%
- residual activity [40]: 83%
- residual activity [41]: 100%
- residual activity [42]: 100%
- residual activity [43]: 95%
- residual activity [44]: 100%
- residual activity [45]: 100%
